Source: ChEMBL document CHEMBL4052645, “Discovery of potent and efficacious pyrrolopyridazines as dual JAK1/3 inhibitors” (Bioorg Med Chem Lett, 2017)

How the values were obtained:
[1] = biological target: Serine/threonine-protein kinase 32C (Homo sapiens) (UniProt Q86UX6); experiment: Inhibition of wild-type human partial length YANK3 (M68 to G486 residues) expressed in bacterial expression system assessed as residual activity at 50 nM by Kinomescan method relative to control
[2] = biological target: Interleukin-1 receptor-associated kinase 1 (Homo sapiens) (UniProt P51617); experiment: Inhibition of wild-type human partial length IRAK1 (R194 to S712 residues) expressed in mammalian expression system assessed as residual activity at 50 nM by Kinomescan method relative to control
Chain of Interleukin-1 receptor-associated kinase 1 (Homo sapiens) (P51617 whole entry, looked up, the tested form may be a part): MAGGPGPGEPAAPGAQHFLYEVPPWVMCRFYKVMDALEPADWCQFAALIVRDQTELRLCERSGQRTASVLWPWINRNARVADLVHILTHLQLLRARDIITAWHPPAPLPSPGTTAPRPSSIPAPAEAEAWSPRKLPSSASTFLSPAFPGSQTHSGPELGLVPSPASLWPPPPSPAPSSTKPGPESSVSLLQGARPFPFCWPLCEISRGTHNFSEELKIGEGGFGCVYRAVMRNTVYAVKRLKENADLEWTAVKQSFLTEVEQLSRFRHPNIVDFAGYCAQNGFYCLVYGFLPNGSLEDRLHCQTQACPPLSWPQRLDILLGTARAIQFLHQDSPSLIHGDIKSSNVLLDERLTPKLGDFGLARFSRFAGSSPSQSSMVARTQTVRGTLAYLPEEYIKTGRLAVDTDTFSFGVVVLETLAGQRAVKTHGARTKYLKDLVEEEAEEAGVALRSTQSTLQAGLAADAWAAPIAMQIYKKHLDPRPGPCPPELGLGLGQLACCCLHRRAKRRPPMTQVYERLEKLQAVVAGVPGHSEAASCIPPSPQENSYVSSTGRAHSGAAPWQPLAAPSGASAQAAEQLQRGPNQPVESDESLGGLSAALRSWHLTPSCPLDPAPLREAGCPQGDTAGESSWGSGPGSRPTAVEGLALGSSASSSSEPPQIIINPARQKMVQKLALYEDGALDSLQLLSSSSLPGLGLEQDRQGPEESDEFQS

[3] = biological target: Phosphatidylinositol 5-phosphate 4-kinase type-2 gamma (Homo sapiens) (UniProt Q8TBX8); experiment: Inhibition of wild-type human partial length PIP5K2C (M1 to A421 residues) expressed in mammalian expression system assessed as residual activity at 50 nM by Kinomescan method relative to control
Chain of Phosphatidylinositol 5-phosphate 4-kinase type-2 gamma (Homo sapiens) (Q8TBX8 whole entry, the tested form may be a part): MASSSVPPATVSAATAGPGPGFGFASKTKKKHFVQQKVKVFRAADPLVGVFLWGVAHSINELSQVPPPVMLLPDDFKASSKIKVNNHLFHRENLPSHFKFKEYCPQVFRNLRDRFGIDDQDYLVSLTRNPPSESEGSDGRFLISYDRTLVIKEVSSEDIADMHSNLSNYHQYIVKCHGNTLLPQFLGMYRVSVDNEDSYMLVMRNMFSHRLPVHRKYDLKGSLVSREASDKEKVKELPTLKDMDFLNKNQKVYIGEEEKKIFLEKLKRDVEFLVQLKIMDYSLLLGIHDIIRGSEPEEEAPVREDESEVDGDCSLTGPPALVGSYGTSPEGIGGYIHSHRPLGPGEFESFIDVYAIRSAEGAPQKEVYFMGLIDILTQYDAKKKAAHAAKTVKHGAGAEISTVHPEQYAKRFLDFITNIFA

[4] = biological target: Megakaryocyte-associated tyrosine-protein kinase (Homo sapiens) (UniProt P42679); experiment: Inhibition of wild-type human full length CTK (M43 to P508 residues) expressed in mammalian expression system assessed as residual activity at 50 nM by Kinomescan method relative to control
[5] = biological target: Cyclin-dependent kinase-like 5 (Homo sapiens) (UniProt O76039); experiment: Inhibition of wild-type human partial length CDKL5 (M1 to S337 residues) expressed in mammalian expression system assessed as residual activity at 50 nM by Kinomescan method relative to control
[6] = biological target: Misshapen-like kinase 1 (Homo sapiens) (UniProt Q8N4C8); experiment: Inhibition of wild-type human partial length MINK (M1 to K312 residues) expressed in mammalian expression system assessed as residual activity at 50 nM by Kinomescan method relative to control
[7] = biological target: Inhibitor of nuclear factor kappa-B kinase subunit alpha (Homo sapiens) (UniProt O15111); experiment: Inhibition of wild-type human full length IKK-alpha (M1 to E745 residues) expressed in mammalian expression system assessed as residual activity at 50 nM by Kinomescan method relative to control
[8] = biological target: Serine/threonine-protein kinase RIO1 (Homo sapiens) (UniProt Q9BRS2); experiment: Inhibition of full length human RIOK1 (M1 to K568 residues) expressed in bacterial expression system assessed as residual activity at 50 nM by KINOMEscan assay relative to control
[9] = biological target: Homeodomain-interacting protein kinase 1 (Homo sapiens) (UniProt Q86Z02); experiment: Inhibition of wild-type human partial length HIPK1 (M146 to I555 residues) expressed in mammalian expression system assessed as residual activity at 50 nM by Kinomescan method relative to control
[10] = biological target: Glycogen synthase kinase-3 alpha (Homo sapiens) (UniProt P49840); experiment: Inhibition of wild-type human full length GSK3A (M1 to S483 residues) expressed in bacterial expression system assessed as residual activity at 50 nM by Kinomescan method relative to control
[11] = biological target: cAMP-dependent protein kinase catalytic subunit beta (Homo sapiens) (UniProt P22694); experiment: Inhibition of wild-type human full length PKACB (M1 to F351 residues) expressed in bacterial expression system assessed as residual activity at 50 nM by Kinomescan method relative to control
[12] = biological target: Cyclin-dependent kinase 3 (Homo sapiens) (UniProt Q00526); experiment: Inhibition of wild-type human full length CDK3 (M1 to H305 residues) expressed in bacterial expression system assessed as residual activity at 50 nM by Kinomescan method relative to control
[13] = biological target: Tyrosine-protein kinase receptor TYRO3 (Homo sapiens) (UniProt Q06418); experiment: Inhibition of wild-type human partial length TYRO3 (S497 to T814 residues) expressed in bacterial expression system assessed as residual activity at 50 nM by Kinomescan method relative to control
[14] = organism: Homo sapiens; experiment: Inhibition of human partial length FLT3 ITD mutant expressed in bacterial expression system assessed as residual activity at 50 nM by Kinomescan method relative to control
[15] = biological target: Serine/threonine-protein kinase VRK2 (Homo sapiens) (UniProt Q86Y07); experiment: Inhibition of wild-type human partial length VRK2 (M1 to T336 residues) expressed in mammalian expression system assessed as residual activity at 50 nM by Kinomescan method relative to control
Chain of Serine/threonine-protein kinase VRK2 (Homo sapiens) (Q86Y07 whole entry, the tested form may be a part): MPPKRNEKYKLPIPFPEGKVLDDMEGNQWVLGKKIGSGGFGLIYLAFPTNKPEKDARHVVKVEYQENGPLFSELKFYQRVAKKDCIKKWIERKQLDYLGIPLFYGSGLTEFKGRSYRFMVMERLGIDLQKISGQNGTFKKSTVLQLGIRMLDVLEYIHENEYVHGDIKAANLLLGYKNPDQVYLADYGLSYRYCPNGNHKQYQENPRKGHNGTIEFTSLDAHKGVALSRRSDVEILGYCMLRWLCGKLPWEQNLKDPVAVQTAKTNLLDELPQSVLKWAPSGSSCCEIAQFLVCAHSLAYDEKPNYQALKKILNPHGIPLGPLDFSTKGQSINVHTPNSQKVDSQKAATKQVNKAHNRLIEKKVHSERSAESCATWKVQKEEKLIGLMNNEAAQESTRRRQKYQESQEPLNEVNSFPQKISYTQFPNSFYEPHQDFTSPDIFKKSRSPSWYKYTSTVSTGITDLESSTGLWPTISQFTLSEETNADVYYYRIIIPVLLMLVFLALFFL

[16] = biological target: Mitogen-activated protein kinase kinase kinase kinase 3 (Homo sapiens) (UniProt Q8IVH8); experiment: Inhibition of wild-type human partial length KHS2 (M1 to D301 residues) expressed in bacterial expression system assessed as residual activity at 50 nM by Kinomescan method relative to control
[17] = biological target: Mitogen-activated protein kinase 14 (Homo sapiens) (UniProt Q16539); experiment: Inhibition of wild-type human full length p38-alpha (M1 to S360 residues) expressed in bacterial expression system assessed as residual activity at 50 nM by Kinomescan method relative to control
[18] = biological target: Cyclin-dependent kinase 15 (Homo sapiens) (UniProt Q96Q40); experiment: Inhibition of wild-type human full length PFTAIRE2 (M1 to W384 residues) expressed in bacterial expression system assessed as residual activity at 50 nM by Kinomescan method relative to control
[19] = biological target: Serine/threonine-protein kinase ULK2 (Homo sapiens) (UniProt Q8IYT8); experiment: Inhibition of wild-type human partial length ULK2 (M1 to S301 residues) expressed in mammalian expression system assessed as residual activity at 50 nM by Kinomescan method relative to control
Chain of Serine/threonine-protein kinase ULK2 (Homo sapiens) (Q8IYT8 whole entry, the tested form may be a part): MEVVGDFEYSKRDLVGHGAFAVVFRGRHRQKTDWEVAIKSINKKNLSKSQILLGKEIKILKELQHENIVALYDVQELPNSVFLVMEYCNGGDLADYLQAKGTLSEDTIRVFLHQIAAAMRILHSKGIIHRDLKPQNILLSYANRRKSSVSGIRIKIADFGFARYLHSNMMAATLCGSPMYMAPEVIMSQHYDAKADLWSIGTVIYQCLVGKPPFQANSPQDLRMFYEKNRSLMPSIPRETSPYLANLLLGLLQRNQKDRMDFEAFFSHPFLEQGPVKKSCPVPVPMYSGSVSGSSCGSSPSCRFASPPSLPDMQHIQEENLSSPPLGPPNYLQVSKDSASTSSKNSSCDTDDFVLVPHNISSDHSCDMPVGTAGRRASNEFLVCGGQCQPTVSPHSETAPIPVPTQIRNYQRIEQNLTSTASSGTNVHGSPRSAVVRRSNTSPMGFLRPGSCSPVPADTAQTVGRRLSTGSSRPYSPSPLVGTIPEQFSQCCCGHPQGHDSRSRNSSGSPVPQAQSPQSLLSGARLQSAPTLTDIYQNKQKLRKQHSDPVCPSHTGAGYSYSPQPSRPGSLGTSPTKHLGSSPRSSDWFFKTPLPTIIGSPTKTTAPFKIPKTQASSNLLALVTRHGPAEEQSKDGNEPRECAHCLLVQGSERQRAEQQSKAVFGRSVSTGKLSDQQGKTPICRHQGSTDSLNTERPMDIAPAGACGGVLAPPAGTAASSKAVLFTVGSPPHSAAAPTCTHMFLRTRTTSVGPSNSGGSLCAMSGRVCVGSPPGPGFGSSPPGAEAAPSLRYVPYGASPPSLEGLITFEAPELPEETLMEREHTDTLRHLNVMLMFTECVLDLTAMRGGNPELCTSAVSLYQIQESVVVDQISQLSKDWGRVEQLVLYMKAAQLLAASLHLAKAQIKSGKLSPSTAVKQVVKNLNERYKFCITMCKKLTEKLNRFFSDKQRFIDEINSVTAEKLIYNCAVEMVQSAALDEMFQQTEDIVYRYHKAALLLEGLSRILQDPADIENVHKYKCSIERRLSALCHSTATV

[20] = biological target: Tyrosine-protein kinase JAK1 (Homo sapiens, UniProt P23458); experiment: Inhibition of GST-tagged JAK1 (unknown origin) after 3 hrs by Caliper assay
[21] = biological target: Death-associated protein kinase 3 (Homo sapiens) (UniProt O43293); experiment: Inhibition of wild-type human partial length DAPK3 (M1 to A277 residues) expressed in bacterial expression system assessed as residual activity at 50 nM by Kinomescan method relative to control
Chain of Death-associated protein kinase 3 (Homo sapiens) (O43293 whole entry, looked up, the tested form may be a part): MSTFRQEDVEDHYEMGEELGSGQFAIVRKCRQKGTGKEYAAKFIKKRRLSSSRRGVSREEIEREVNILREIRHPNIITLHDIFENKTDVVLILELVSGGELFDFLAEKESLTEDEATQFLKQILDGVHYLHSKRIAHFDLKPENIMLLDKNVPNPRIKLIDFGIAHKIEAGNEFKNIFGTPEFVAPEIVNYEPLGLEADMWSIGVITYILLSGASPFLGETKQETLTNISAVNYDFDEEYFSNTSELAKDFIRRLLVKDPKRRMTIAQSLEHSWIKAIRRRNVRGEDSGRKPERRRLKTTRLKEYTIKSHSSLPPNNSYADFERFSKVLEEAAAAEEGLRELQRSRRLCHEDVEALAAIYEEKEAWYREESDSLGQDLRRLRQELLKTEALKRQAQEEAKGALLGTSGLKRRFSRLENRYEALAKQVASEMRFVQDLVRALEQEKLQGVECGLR

[22] = biological target: Serine/threonine-protein kinase 25 (Homo sapiens) (UniProt O00506); experiment: Inhibition of wild-type human partial length YSK1 (V14 to H295 residues) expressed in bacterial expression system assessed as residual activity at 50 nM by Kinomescan method relative to control
[23] = biological target: Insulin receptor-related protein (Homo sapiens) (UniProt P14616); experiment: Inhibition of wild-type human partial length IRR (R950 to E1278 residues) expressed in bacterial expression system assessed as residual activity at 50 nM by Kinomescan method relative to control
[24] = biological target: Serine/threonine-protein kinase PRP4 homolog (Homo sapiens) (UniProt Q13523); experiment: Inhibition of wild-type human partial length PRP4 (D657 to I1007 residues) expressed in bacterial expression system assessed as residual activity at 50 nM by Kinomescan method relative to control
Chain of Serine/threonine-protein kinase PRP4 homolog (Homo sapiens) (Q13523 whole entry, the tested form may be a part): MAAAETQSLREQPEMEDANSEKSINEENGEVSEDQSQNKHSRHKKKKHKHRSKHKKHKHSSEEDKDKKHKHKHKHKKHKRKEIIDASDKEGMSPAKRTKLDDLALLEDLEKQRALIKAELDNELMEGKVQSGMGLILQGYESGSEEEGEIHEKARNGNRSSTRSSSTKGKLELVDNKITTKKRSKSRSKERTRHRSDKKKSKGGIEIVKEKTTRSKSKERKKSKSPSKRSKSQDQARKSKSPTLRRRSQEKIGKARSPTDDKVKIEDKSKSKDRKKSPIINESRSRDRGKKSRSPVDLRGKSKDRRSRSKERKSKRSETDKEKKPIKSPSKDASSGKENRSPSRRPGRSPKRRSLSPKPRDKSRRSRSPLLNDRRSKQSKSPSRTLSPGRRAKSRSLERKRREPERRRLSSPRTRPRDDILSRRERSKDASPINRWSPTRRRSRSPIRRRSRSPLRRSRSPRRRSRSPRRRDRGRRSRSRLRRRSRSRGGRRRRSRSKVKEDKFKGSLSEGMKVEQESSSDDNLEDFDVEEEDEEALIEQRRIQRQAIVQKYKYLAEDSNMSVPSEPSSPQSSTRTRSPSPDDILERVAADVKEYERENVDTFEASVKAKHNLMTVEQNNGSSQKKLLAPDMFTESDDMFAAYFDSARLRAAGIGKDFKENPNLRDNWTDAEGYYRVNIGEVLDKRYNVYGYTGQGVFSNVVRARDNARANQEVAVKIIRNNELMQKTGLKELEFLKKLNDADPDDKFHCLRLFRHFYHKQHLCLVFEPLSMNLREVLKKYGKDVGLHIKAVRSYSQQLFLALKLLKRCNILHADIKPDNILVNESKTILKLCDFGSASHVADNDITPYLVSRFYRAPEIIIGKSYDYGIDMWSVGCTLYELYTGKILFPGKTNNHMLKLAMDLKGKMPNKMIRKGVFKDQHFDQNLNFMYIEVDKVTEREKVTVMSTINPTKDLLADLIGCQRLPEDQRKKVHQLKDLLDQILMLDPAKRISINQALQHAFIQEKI

[25] = biological target: Bone morphogenetic protein receptor type-1B (Homo sapiens) (UniProt O00238); experiment: Inhibition of wild-type human partial length BMPR1B (D178 to L502 residues) expressed in mammalian expression system assessed as residual activity at 50 nM by Kinomescan method relative to control
[26] = biological target: Serine/threonine-protein kinase TBK1 (Homo sapiens) (UniProt Q9UHD2); experiment: Inhibition of wild-type human full length TBK1 (M1 to L729 residues) expressed in mammalian expression system assessed as residual activity at 50 nM by Kinomescan method relative to control
Chain of Serine/threonine-protein kinase TBK1 (Homo sapiens) (Q9UHD2 whole entry, the tested form may be a part): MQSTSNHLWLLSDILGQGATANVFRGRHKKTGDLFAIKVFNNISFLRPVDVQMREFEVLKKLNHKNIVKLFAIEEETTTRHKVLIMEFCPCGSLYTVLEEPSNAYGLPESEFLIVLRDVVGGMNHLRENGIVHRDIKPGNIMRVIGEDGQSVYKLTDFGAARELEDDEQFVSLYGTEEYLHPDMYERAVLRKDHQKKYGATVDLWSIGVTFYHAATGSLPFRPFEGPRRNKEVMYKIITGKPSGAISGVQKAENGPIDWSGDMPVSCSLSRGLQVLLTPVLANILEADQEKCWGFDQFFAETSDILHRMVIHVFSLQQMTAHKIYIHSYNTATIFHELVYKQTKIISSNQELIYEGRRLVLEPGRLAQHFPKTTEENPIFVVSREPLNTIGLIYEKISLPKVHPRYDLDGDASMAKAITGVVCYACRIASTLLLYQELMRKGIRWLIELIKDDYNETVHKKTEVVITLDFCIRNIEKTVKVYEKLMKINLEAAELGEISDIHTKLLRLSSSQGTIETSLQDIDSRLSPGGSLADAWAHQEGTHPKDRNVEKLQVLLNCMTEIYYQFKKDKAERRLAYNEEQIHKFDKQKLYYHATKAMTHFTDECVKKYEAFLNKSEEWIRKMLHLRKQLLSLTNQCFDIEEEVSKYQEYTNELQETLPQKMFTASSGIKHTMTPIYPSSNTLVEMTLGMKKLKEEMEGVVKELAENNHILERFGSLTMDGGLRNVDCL

| SMILES | Activity [1] [%] | Activity [2] [%] | Activity [3] [%] | Activity [4] [%] | Activity [5] [%] | Activity [6] [%] | Activity [7] [%] | Activity [8] [%] | Activity [9] [%] | Activity [10] [%] | Activity [11] [%] | Activity [12] [%] | Activity [13] [%] | Activity [14] [%] | Activity [15] [%] | Activity [16] [%] | Activity [17] [%] | Activity [18] [%] | Activity [19] [%] | IC50 [20] [nM] | also measured |
| --- | --- | --- | --- | --- | --- | --- | --- | --- | --- | --- | --- | --- | --- | --- | --- | --- | --- | --- | --- | --- | --- |
| COc1ccc(-c2cc3c(N[C@@H]4CC[C@](C)(N)C4(C)C)c(C(N)=O)cnn3c2)cn1 | 100 | 100 | 100 | 85 | 90 | 96 | 87 | 69 | 100 | 100 | 100 | 94 | 89 | 79 | 85 | 49 | 100 | 90 | 75 | 1.9 | Activity [21]: 97%; Activity [22]: 74%; Activity [23]: 92%; Activity [24]: 97%; Activity [25]: 100%; Activity [26]: 97% |
| CC1(C)[C@H](Nc2c(C(N)=O)cnn3cc(-c4ccccc4)cc23)CC[C@]1(C)N | 100 | 94 | 100 | 95 | 83 | 100 | 100 | 14 | 100 | 65 | 100 | 98 | 100 | 80 | 70 | 18 | 94 | 100 | 36 | 0.4 | Activity [21]: 90%; Activity [22]: 58%; Activity [23]: 100%; Activity [24]: 95%; Activity [25]: 100%; Activity [26]: 90% |
